According to patent publication US20240076293A1, “Compositions and Methods for Inhibiting Fibrosis, Inflammation and Cancer” (Georgia Tech Research Corporation, priority 2020, published 2024):
Like-named read-outs stand apart in the source and are kept apart here.

What was measured:
Format in all cases: cell-based
Hep-G2 = assay: Anti-proliferation IC50, Hep-G2; conditions: Homo sapiens, HepG2
MRC-5 = assay: Anti-proliferation IC50, MRC-5; conditions: Homo sapiens, MRC5; Table 2, compounds of formula II
A549 = assay: Anti-proliferation IC50, A549; conditions: Homo sapiens
VERO = assay: Anti-proliferation IC50, VERO; conditions: Chlorocebus sabaeus
[1] = Anti-proliferation IC50, MRC-5; conditions: human, MRC-5 cells; Table 1, compounds of formula I; NI = no inhibition up to 500 μM
[2] = Table 2, compounds of formula II, read-out: Anti-proliferation IC50 Hep-G2
[3] = Table 2, compounds of formula II, read-out: Anti-proliferation IC50 A549
[4] = Table 2, compounds of formula II, read-out: Anti-proliferation IC50 VERO
[5] = Table 1, compounds of formula I, NI = no inhibition up to 500 μM, read-out: Hep-G2 (IC50)
[6] = Table 1, compounds of formula I, NI = no inhibition up to 500 μM, read-out: A549 (IC50)
[7] = Table 1, compounds of formula I, NI = no inhibition up to 500 μM, read-out: VERO (IC50)

Structure (SMILES)	IC50 (Hep-G2; [2]) [µM]	IC50 (A549; [3]) [µM]	IC50 (Hep-G2; [5]) [µM]	IC50 (A549; [6]) [µM]	IC50 (MRC-5) [µM]	IC50 (VERO; [4]) [µM]	IC50 [1] [µM]	IC50 (VERO; [7]) [µM]
CC[C@@H]1OC(=O)[C@@H](C)[C@H](O[C@H]2C[C@@](C)(OC)[C@@H](O)[C@H](C)O2)[C@@H](C)[C@H](O[C@H]2O[C@@H](C)C[C@@H](N(C)C)[C@@H]2OC(=O)/C=C/C=C/c2ccc3c(c2)OCO3)C(C)(O)C[C@H](C)CN(C)[C@@H](C)[C@H](O)[C@@]1(C)O (some centres unmarked)	5 ± 0.5	15.6 ± 2.6	–	–	3.8 ± 0.8	13.2 ± 1.5	–	–
CC[C@@H]1OC(=O)[C@@H](C)[C@H](O)[C@@H](C)[C@H](O[C@H]2O[C@@H](C)C[C@@H](N(C)Cc3ccc(-c4cn(CCCNC(=O)CCCC[C@H]5CCSS5)nn4)cc3)[C@@H]2O)C(C)(O)C[C@H](C)CN(C)[C@@H](C)[C@H](O)[C@@]1(C)O (some centres unmarked)	157 ± 11.4	92.9 ± 13	–	–	145 ± 3.5	168 ± 19.7	–	–
CC[C@H]1OC(=O)[C@H](C)[C@@H](O[C@H]2C[C@@](C)(OC)[C@@H](O)[C@H](C)O2)[C@H](C)[C@@H](O[C@@H]2O[C@H](C)C[C@H](N(C)CCCCc3ccc(-n4cc(C)ccc4=O)cc3)[C@H]2O)[C@](C)(O)C[C@@H](C)CN(C)[C@H](C)[C@@H](O)[C@]1(C)O [Compound 15a]	52.2 ± 1	43.2 ± 5.7	–	–	5.9 ± 0.1	23.9 ± 1.7	–	–
CC[C@H]1OC(=O)[C@H](C)[C@@H](O[C@H]2C[C@@](C)(OC)[C@@H](O)[C@H](C)O2)[C@H](C)[C@@H](O[C@@H]2O[C@H](C)C[C@H](N(C)CC#Cc3ccc(-n4cc(C)ccc4=O)cc3)[C@H]2O)[C@](C)(O)C[C@@H](C)CN(C)[C@H](C)[C@@H](O)[C@]1(C)O [Compound 20a]	53.4 ± 3.3	55.9 ± 6.4	–	–	23.3 ± 3.3	71.4 ± 6.3	–	–
CC[C@@H]1OC(=O)[C@@H](C)[C@H](O[C@H]2C[C@@](C)(OC)[C@@H](O)[C@H](C)O2)C(C)[C@H](O[C@H]2O[C@@H](C)C[C@@H](N(C)C(=O)/C=C/C=C/c3ccc4c(c3)OCO4)[C@@H]2O)C(C)(O)C[C@H](C)CN(C)[C@@H](C)[C@H](O)[C@@]1(C)O (some centres unmarked)	10.2 ± 1.9	19.6 ± 1.8	–	–	11.4 ± 0.4	12.9	–	–
CC[C@H]1OC(=O)[C@H](C)[C@@H](O[C@H]2C[C@@](C)(OC)[C@@H](O)[C@H](C)O2)[C@H](C)[C@@H](O[C@@H]2O[C@H](C)C[C@H](N(C)Cc3ccc(-c4cn(Cc5ccc(-n6cc(C)ccc6=O)cc5)nn4)cc3)[C@H]2O)[C@](C)(O)C[C@@H](C)CN(C)[C@H](C)[C@@H](O)[C@]1(C)O [Compound 11c]	11.1 ± 0.3	18.4 ± 4.4	–	–	13.4 ± 0.1	16.2 ± 2.8	–	–
CC[C@H]1OC(=O)[C@H](C)[C@@H](O[C@H]2C[C@@](C)(OC)[C@@H](O)[C@H](C)O2)[C@H](C)[C@@H](O[C@@H]2O[C@H](C)C[C@H](N(C)CCc3ccc(-n4cc(C)ccc4=O)cc3)[C@H]2O)[C@](C)(O)C[C@@H](C)CN(C)[C@H](C)[C@@H](O)[C@]1(C)O [Compound 13a]	27.2 ± 2.3	40.8 ± 4	–	–	36.1 ± 3.3	30.3 ± 5.2	–	–
CC[C@H]1OC(=O)[C@H](C)[C@@H](O[C@H]2C[C@@](C)(OC)[C@@H](O)[C@H](C)O2)[C@H](C)[C@@H](O[C@@H]2O[C@H](C)C[C@H](N(C)Cc3cn(CCCCc4ccc(-n5cc(C)ccc5=O)cc4)nn3)[C@H]2O)[C@](C)(O)C[C@@H](C)CN(C)[C@H](C)[C@@H](O)[C@]1(C)O [Compound 15b]	27.7 ± 3.3	35.2 ± 5.4	–	–	36.1 ± 6.1	53.2 ± 0.1	–	–
CC[C@H]1OC(=O)[C@@H](C)[C@@H](O[C@@H]2C[C@](C)(OC)[C@H](O)[C@@H](C)O2)[C@@H](C)[C@@H](O[C@H]2O[C@@H](C)C[C@@H](N(C)C)[C@@H]2OC(=O)/C=C/C=C/c2ccc3c(c2)OCO3)[C@](C)(OC)C[C@@H](C)C(=O)[C@H](C)[C@H](O)[C@]1(C)O	–	–	5.6 ± 0.1	16.9 ± 0.7	–	–	7.8 ± 0.7	21 ± 2.3
CC[C@H]1OC(=O)[C@H](C)[C@@H](O[C@H]2C[C@@](C)(OC)[C@@H](O)[C@H](C)O2)[C@H](C)[C@@H](O[C@@H]2O[C@H](C)C[C@H](N(C)CCCCC#Cc3ccc(-n4cc(C)ccc4=O)cc3)[C@H]2O)[C@](C)(O)C[C@@H](C)CN(C)[C@H](C)[C@@H](O)[C@]1(C)O [Compound 20d]	12.7 ± 1.3	15.5 ± 1.1	–	–	5.5 ± 0.2	16.2 ± 3.1	–	–
O=C(O)/C=C/C=C/c1ccc2c(c1)OCO2 [Piperic acid (PPA), Piperic acid, reference compound]	–	–	> 500	> 500	–	–	> 500	> 500
CCC1OC(=O)[C@H](C)[C@H](OC2C[C@@](C)(OC)[C@@H](O)[C@H](C)O2)[C@H](C)[C@@H](OC2O[C@H](C)C[C@H](N(C)CC#Cc3ccc(-n4cc(C)ccc4=O)cc3)[C@H]2O)[C@@](C)(OC)C[C@@H](C)C(=O)[C@H](C)[C@@H](O)[C@]1(C)O (some centres unmarked) [Compound 19a]	–	–	50.7 ± 3	44.1 ± 10.8	–	–	82.6 ± 0.3	55.5 ± 2.6
CCC1OC(=O)[C@H](C)[C@H](OC2C[C@@](C)(OC)[C@@H](O)[C@H](C)O2)[C@H](C)[C@@H](OC2O[C@H](C)C[C@H](N(C)Cc3ccc(-n4cc(C)ccc4=O)cc3)[C@H]2O)[C@@](C)(OC)C[C@@H](C)C(=O)[C@H](C)[C@@H](O)[C@]1(C)O (some centres unmarked) [Compound 10a]	–	–	> 500	> 500	–	–	> 500	> 500
CC[C@H]1OC(=O)[C@H](C)[C@@H](O[C@H]2C[C@@](C)(OC)[C@@H](O)[C@H](C)O2)[C@H](C)[C@@H](O[C@@H]2O[C@H](C)C[C@H](N(C)C)[C@H]2O)[C@](C)(OC)C[C@@H](C)C(=O)[C@H](C)[C@@H](O)[C@]1(C)O [Clarithromycin (CLM), Clarithromycin, reference compound]	–	–	130	> 500	–	–	138.1 ± 1.1	> 500
CCC1OC(=O)[C@H](C)[C@H](OC2C[C@@](C)(OC)[C@@H](O)[C@H](C)O2)[C@H](C)[C@@H](OC2O[C@H](C)C[C@H](N(C)CCCC#Cc3ccc(-n4cc(C)ccc4=O)cc3)[C@H]2O)[C@@](C)(OC)C[C@@H](C)C(=O)[C@H](C)[C@@H](O)[C@]1(C)O (some centres unmarked) [Compound 19c]	–	–	24 ± 1.2	58.6 ± 1.4	–	–	15.2 ± 0.1	55.5 ± 0.4
CCC1OC(=O)[C@H](C)[C@H](OC2C[C@@](C)(OC)[C@@H](O)[C@H](C)O2)[C@H](C)[C@@H](OC2O[C@H](C)C[C@H](N(C)Cc3ccc(-c4cn(CCCCc5ccc(-n6cc(C)ccc6=O)cc5)nn4)cc3)[C@H]2O)[C@@](C)(OC)C[C@@H](C)C(=O)[C@H](C)[C@@H](O)[C@]1(C)O (some centres unmarked) [Compound 14c]	–	–	36.4 ± 6.6	10.9 ± 0.4	–	–	11.6 ± 0.3	12.4 ± 0.2

Second part, led by results:

IC50 (Hep-G2; [2]) [µM]	IC50 (A549; [3]) [µM]	IC50 (Hep-G2; [5]) [µM]	IC50 (A549; [6]) [µM]	Structure (SMILES)	IC50 (MRC-5) [µM]	IC50 (VERO; [4]) [µM]	IC50 [1] [µM]	IC50 (VERO; [7]) [µM]
45.2 ± 7.4	42.7 ± 8.4	–	–	CC[C@H]1OC(=O)[C@H](C)[C@@H](O[C@H]2C[C@@](C)(OC)[C@@H](O)[C@H](C)O2)[C@H](C)[C@@H](O[C@@H]2O[C@H](C)C[C@H](N(C)CCCC#Cc3ccc(-n4cc(C)ccc4=O)cc3)[C@H]2O)[C@](C)(O)C[C@@H](C)CN(C)[C@H](C)[C@@H](O)[C@]1(C)O [Compound 20c]	41.7 ± 0.1	36.4 ± 3.8	–	–
33 ± 5.4	47.2 ± 5.1	–	–	CC[C@H]1OC(=O)[C@H](C)[C@@H](O[C@H]2C[C@@](C)(OC)[C@@H](O)[C@H](C)O2)[C@H](C)[C@@H](O[C@@H]2O[C@H](C)C[C@H](N(C)Cc3ccc(-n4cc(C)ccc4=O)cc3)[C@H]2O)[C@](C)(O)C[C@@H](C)CN(C)[C@H](C)[C@@H](O)[C@]1(C)O [Compound 11a]	55.8 ± 1.9	47.2 ± 0.4	–	–
234 ± 31.1	265 ± 4	–	–	CC[C@H]1OC(=O)[C@H](C)[C@@H](O[C@H]2C[C@@](C)(OC)[C@@H](O)[C@H](C)O2)[C@H](C)[C@@H](O[C@@H]2O[C@H](C)C[C@H](N(C)Cc3cn(Cc4ccc(-n5cc(C)ccc5=O)cc4)nn3)[C@H]2O)[C@](C)(O)C[C@@H](C)CN(C)[C@H](C)[C@@H](O)[C@]1(C)O [Compound 11b]	121 ± 14.1	122 ± 19.4	–	–
21.8 ± 0.4	15.8 ± 3	–	–	CC[C@H]1OC(=O)[C@H](C)[C@@H](O[C@H]2C[C@@](C)(OC)[C@@H](O)[C@H](C)O2)[C@H](C)[C@@H](O[C@@H]2O[C@H](C)C[C@H](N(C)Cc3ccc(-c4cn(CCc5ccc(-n6cc(C)ccc6=O)cc5)nn4)cc3)[C@H]2O)[C@](C)(O)C[C@@H](C)CN(C)[C@H](C)[C@@H](O)[C@]1(C)O [Compound 13c]	13.3 ± 0.9	22.6 ± 4.9	–	–
–	–	28.1 ± 1.8	35.3 ± 1.5	CCC1OC(=O)[C@H](C)[C@H](OC2C[C@@](C)(OC)[C@@H](O)[C@H](C)O2)[C@H](C)[C@@H](OC2O[C@H](C)C[C@H](N(C)Cc3ccc(-c4cn(CCc5ccc(-n6cc(C)ccc6=O)cc5)nn4)cc3)[C@H]2O)[C@@](C)(OC)C[C@@H](C)C(=O)[C@H](C)[C@@H](O)[C@]1(C)O (some centres unmarked) [Compound 12c]	–	–	13.1 ± 1.2	14.2 ± 0.3
–	–	44.8 ± 3.6	28.7 ± 3.4	CCC1OC(=O)[C@H](C)[C@H](OC2C[C@@](C)(OC)[C@@H](O)[C@H](C)O2)[C@H](C)[C@@H](OC2O[C@H](C)C[C@H](N(C)Cc3cn(CCCCc4ccc(-n5cc(C)ccc5=O)cc4)nn3)[C@H]2O)[C@@](C)(OC)C[C@@H](C)C(=O)[C@H](C)[C@@H](O)[C@]1(C)O (some centres unmarked) [Compound 14b]	–	–	32.8 ± 5.1	33.3 ± 1.9
–	–	32 ± 0.1	35.4 ± 2.1	CCC1OC(=O)[C@H](C)[C@H](OC2C[C@@](C)(OC)[C@@H](O)[C@H](C)O2)[C@H](C)[C@@H](OC2O[C@H](C)C[C@H](N(C)CCCCC#Cc3ccc(-n4cc(C)ccc4=O)cc3)[C@H]2O)[C@@](C)(OC)C[C@@H](C)C(=O)[C@H](C)[C@@H](O)[C@]1(C)O (some centres unmarked) [Compound 19d]	–	–	28.9 ± 1.9	24.3 ± 0.1
